In brackets after ≈: the same amount, converted by molar mass. Like-named read-outs stand apart in the source and are kept apart here.
Tests used:
in vivo = assay: in vivo; design: species or system male SD rats; details: male, SD, rat, 5 mg/kg
Description: Test animals: male SD rats, weighing 180-280 g, purchased from Beijing Vital River Laboratory Animal Technology Co., Ltd.; animal Certificate of Conformity: SCXK (Beijing) 2006-0009. Six rats were tested for each compound. the compounds of the present invention, prepared in accordance with the methods of above Examples, dissolved in physiological saline. tigecycline, dissolved in physiological saline. Administration of the compounds of the present invention: intravenous bolus injection (iv), dose: 5 mg/kg, administrating volume: 5 mL/kg; gavage (po), dose: 5 mg/kg, administrating volume: 5 mL/kg. Administration of tigecycline: gavage (po), dose: 10 mg/kg, administrating volume: 5 mL/kg. Prior to administration help but water fasting for 16 hours, 4 hours after administration to food. Compound 9: iv blood sampling time point: denoted by 0 min before administration, 5 min, 15 min, 30 min, 1 […] after administration; po blood sampling time point: denoted by 0 min before administration, 5 min, 15 min, 30 min, 1 […] after administration; Compound 20: iv blood sampling time point: 5 min, 15 min, 30 min, 1 […] after administration; po blood sampling time point: 10 min, 30 min, 1 […] after administration; Compound 23: iv blood sampling time point: denoted by 0 min before administration, 5 min, 15 min, 30 min, 1 […] after administration; po blood sampling time point: denoted by 0 min before administration, 5 min, 15 min, 30 min, 1 […] after administration; Tigecycline: iv blood sampling time point: 5 min, 15 min, 30 min, 1 h, 2 h, 4 h, 6 h, 8 h after administration; po blood sampling time point: 10 min, 30 min, 1 […] after administration. Each time point is taken around 100 μl whole blood and placed in a heparinized tube, centrifugated at 8000 rpm/min at 4° C. for 6 minutes in a low-temperature high-speed centrifuge to separate plasma, the resulting plasma was frozen at -80° C. refrigerator. Plasma samples analysis: 20 μl of plasma was taken and added 200 μl of internal standard solution, subjected to vortex for 3 minutes, then to centrifugation at 12,000 rpm/min for 5 minutes. 100 μl of supernatant was taken and analyzed using LC-MS/MS. Formula Absolute Bioavailability F%=[AUC](po)×Dose(iv)/[AUC](iv)×Dose(po)

Staphylococcus aureus [1] = assay: bactericidal effects in vivo in neutropenic mouse thigh model with Staphylococcus aureus infection; design: species or system mice; details: for change values (24 h vs blank group mean 0 h) / log10 CFU for each thigh, mean ± standard deviations (24 h): 2 dose times, subcutaneous
Description: Bactericidal Effects of the Present Compounds In Vivo in Mouse Thigh Model with Staphylococcus aureus Infection SPF grade CD-1 (ICR) female mice housed in SPF environment, weighing 25±2 g, purchased from Beijing Vital River Laboratory Animal Technology Co., Ltd., licensed […] No: SCXK (Beijing) 2006-0009. Staphylococcus aureus: purchased from Shanghai Renji Hospital. Four days before bacterial infection, intraperitoneal (ip) injection of cyclophosphamide 150 mg/kg; 1 day before bacterial infection, intraperitoneal (ip) injection of cyclophosphamide 100 mg/kg; Picked fresh Staphylococcus aureus single colonies which were plate cultured for 18 h, and inoculated into broth and cultured at 35° C. for 18 h. The bacterial suspension was diluted with broth, and 0.5 McFarland turbidity standard indicator bacteria suspension was prepared with a McFarland turbiditor, 10-fold diluted with broth and injected into the thigh muscle of mice in an amount of 0.1 mL for each thigh. The concentration of the bacteria suspension was about 10^6-10^7 CFU/ml. The inoculum concentration was determined by an agar-plate count method. Blank Group: the animals were sacrificed by dislocation at 2 h (recorded as 0 h) after the inoculation of bacteria. Solvent group: The first administration time was set at 2 h (denoted as 0 h) after the animals were infected with bacteria, the solvent was subcutaneously administrated, the animals were sacrificed by dislocation at 24 h after the administration. Treatment group: The first administration time was set at 2 h (denoted as 0 h). […] The thigh muscle tissue was separated from the sacrificed animals, and 5 mL of sodium chloride injection was added, homogenated. The homogenate obtained were diluted series, taken 0.05 mL and inoculated to agar plates, two plates were inoculated in parallel for each gradient bacterial suspension, and incubated at 35° C. for 18 h. Observe the growth of the colonies on each plate, and select the plates with the number of colonies between 30-300 for colony count. The number of colonies was recorded as n1, n2. N represents the diluted fold. The number of colonies (units CFU) for each thigh was calculated according to the formula of “(n1+n2)/2/0.05×5×N”. A logarithm to the base 10 for the number of colonies of each thigh was calculated to obtain log10 CFU value for each thigh.

[2] = system: Streptococcus constellatus; assay: antibacterial activity in vitro, agar dilution method; type: cell-based; details: Table 5, MIC90 = 90% inhibitory concentration
Source text: (§1) The antibacterial spectrum and in vitro antibacterial activity of the compound of the present invention
(§2) Experimental method: the agar dilution method, with reference to Clinical And Laboratory Standards Institute. Methods for Dilution Antimicrobial Susceptibility Tests for Bacteria That Grow Aerobically; Approved Standard-Seventh Edition. CLSI Document M7-A7. Vol 26, no. 2, Wayne, Pa.: Clinical and Laboratory Standards Institute, 2006.
(§3) Wherein MIC represents the minimum inhibitory concentration, MIC90 represents the 90% inhibitory concentration.

Hemophilus influenzae = assay: as above; type: cell-based; details: Haemophilus influenzae; Table 5; MIC90 = 90% inhibitory concentration
Source text: as §1, §2, §3

Streptococus agalactiae = assay: as above; type: cell-based; details: Table 4
Source text: as §1, §2, §3

Staphylococcus aureus [3] = assay: as above; type: cell-based; details: for MIC90: Staphylococcus aureus, Table 5, MIC90 = 90% inhibitory concentration; for MIC: Table 10, Staphylococcus aureus of the thigh model
Source text: as §1, §2, §3

Escherichia coli = assay: as above; type: cell-based
Source text: as §1, §2, §3

[4] = system: Acinetobacter calcoaceticus; assay: as above; type: cell-based; details: Table 4
Source text: as §1, §2, §3

Klebsiella pneumoniae = assay: as above; type: cell-based
Source text: as §1, §2, §3

[5] = system: Methicillin-resistant Staphylococcus aureus (MRSA); assay: as above; type: cell-based; details: for MIC90: Table 5, MIC90 = 90% inhibitory concentration
Source text: as §1, §2, §3

Enterococcus faecalis = assay: as above; type: cell-based; details: Table 4
Source text: as §1, §2, §3

Acinetobacter baumannii = assay: as above; type: cell-based; details: for MIC90: Table 5, MIC90 = 90% inhibitory concentration
Source text: as §1, §2, §3

Streptococcus pyogenes = assay: as above; type: cell-based; details: Table 2
Source text: as §1, §2, §3

[6] = system: Methicillin-resistant Staphycoccus epidermidis (MRSE); assay: as above; type: cell-based; details: Staphylococcus epidermidis, Table 2
Source text: as §1, §2, §3

[7] = Table 4, agar dilution, read-out: antibacterial activity MIC, Acinetobacter baumannii

Row | SMILES | change values (24 h vs blank group mean 0 h) (Staphylococcus aureus [1]; 2 mg/kg/day) [log10 CFU] | log10 CFU for each thigh, mean ± standard deviations (24 h) (Staphylococcus aureus [1]; 2 mg/kg/day) [log10 CFU] | bactericidal effect against Staphylococcus aureus in vivo in mice (Staphylococcus aureus [1]; 6 mg/kg/day) | change values (24 h vs blank group mean 0 h) (Staphylococcus aureus [1]; 6 mg/kg/day) [log10 CFU] | log10 CFU for each thigh, mean ± standard deviations (24 h) (Staphylococcus aureus [1]; 6 mg/kg/day) [log10 CFU] | change values (24 h vs blank group mean 0 h) (Staphylococcus aureus [1]; 18 mg/kg/day) [log10 CFU] | log10 CFU for each thigh, mean ± standard deviations (24 h) (Staphylococcus aureus [1]; 18 mg/kg/day) [log10 CFU] | MIC90 [2] [µg/mL] | MIC90 (Hemophilus influenzae) [µg/mL] | MIC (Streptococus agalactiae) [µg/mL] | MIC90 (Staphylococcus aureus [3]) [µg/mL] | MIC (Staphylococcus aureus [3]) [µg/mL] | MIC (Escherichia coli; Table 4) [µg/mL] | MIC [4] [µg/mL] | MIC (Klebsiella pneumoniae; Table 4) [µg/mL] | MIC ([5]; Table 4, agar dilution) [µg/mL] | MIC90 [5] [µg/mL] | MIC (Enterococcus faecalis) [µg/mL] | MIC (Acinetobacter baumannii; [7]) [µg/mL] | MIC90 (Acinetobacter baumannii) [µg/mL] | further results
1 | CN(C)c1cc(CN2CC3CC3C2)c(O)c2c1C[C@H]1C[C@H]3[C@H](N(C)C)C(O)=C(C(N)=O)C(=O)[C@@]3(O)C(O)=C1C2=O (stereo partly drawn) [Compound 23, (4S,4aS,5aR,12aS)-9-(3-azabicyclo[3.1.0]hexan-3-ylmethyl)-4,7-bis(dimethylamino)-3,10,12,12a-tetrahydroxy-1,11-dioxo-1,4,4a,5,5a,6,11,12a-octahydrotetracene-2-carboxamide] | 1.28 | 7.67 ± 0.17 | had bactericidal effect | −0.12 | 6.27 ± 0.41 | −2.04 | 4.35 ± 0.45 | 0.125 (≈ 0.226 µM) | 0.5 (≈ 0.905 µM) | 0.06 (≈ 0.109 µM) | 0.25 (≈ 0.452 µM) | 0.25 (≈ 0.452 µM) | 0.25 (≈ 0.452 µM) | 0.125 (≈ 0.226 µM) | 1 (≈ 1.81 µM) | 0.25 (≈ 0.452 µM) | 0.5 (≈ 0.905 µM) | 0.06 (≈ 0.109 µM) | 1 (≈ 1.81 µM) | 2 (≈ 3.62 µM) | AUC(0-inf) (in vivo; iv): 9110 ng·h/mL; Vd (in vivo; iv): 5 L/kg; clearance (in vivo; iv): 9.33 mL/min/kg; half-life (in vivo; iv): 9.94 h; AUC(0-inf) (in vivo; po): 2000 ng·h/mL; Cmax (in vivo; po): 199 ng/mL; Tmax (in vivo; po): 1 h; bioavailability (in vivo; po): 22%; bacteria reducing value of each thigh (Staphylococcus aureus [1]; 6 mg/kg/day): 0.12
2 | CN(C)c1cc(CNCC(C)(C)C)c(O)c2c1C[C@H]1C[C@H]3[C@H](N(C)C)C(O)=C(C(N)=O)C(=O)[C@@]3(O)C(O)=C1C2=O [PTK-0796, reference compound] | 1.77 | 8.16 ± 0.13 | did not show bactericidal effect | 1.20 | 7.59 ± 0.21 | −1.05 | 5.34 ± 0.79 | 0.5 (≈ 0.898 µM) | 1 (≈ 1.8 µM) | 0.5 (≈ 0.898 µM) | 0.5 (≈ 0.898 µM) | 0.5 (≈ 0.898 µM) | 4 (≈ 7.19 µM) | 0.5 (≈ 0.898 µM) | 8 (≈ 14.4 µM) | 2 (≈ 3.59 µM) | 2 (≈ 3.59 µM) | 0.25 (≈ 0.449 µM) | 4 (≈ 7.19 µM) | 8 (≈ 14.4 µM) | bacteria growing values of each thigh (Staphylococcus aureus [1]; 6 mg/kg/day): 1.20; MIC (Streptococcus pyogenes): 0.25 µg/mL (≈ 0.449 µM); MIC (Escherichia coli; Table 2): 1 µg/mL (≈ 1.8 µM); MIC (Klebsiella pneumoniae; Table 2): 4 µg/mL (≈ 7.19 µM); MIC ([5]; Table 2, agar dilution): 0.5 µg/mL (≈ 0.898 µM); MIC (Acinetobacter baumannii; Table 2, agar dilution, read-out: antibacterial activity MIC, Acinetbacter baumannii): 2 µg/mL (≈ 3.59 µM); MIC [6]: 0.5 µg/mL (≈ 0.898 µM)

From US9365499B2, “9-aminomethyl substituted tetracycline compounds” (KBP Biosciences Co., Ltd., priority 2011, dated 2016)
